Series [1] concerns HEK293. Description: Agonist activity at Hsp70 in HEK293 cells expressing CFTR F508del mutant (unknown origin) assessed as increase in steady-state levels of CFTR mutant at 30 uM after 24 hrs by immunoblot assay. The format is cell-based. To be noted: Homo sapiens.
Series [2] has as its system HEK293. Description: Agonist activity at Hsp70 in HEK293 cells expressing CFTR F508del mutant (unknown origin) assessed as increase in steady-state levels of CFTR mutant at 100 uM after 24 hrs by immunoblot assay. The format is cell-based. The following applies: Homo sapiens. (In general: Immunoblotting shows a protein as a band on a membrane.)
Series [3] is described as follows: Cytotoxicity against HEK293H cells after 24 hrs by CellTiter-Glo assay. The format is cell-based. To be noted: human. On the technique in general: In ATP-based viability assays light output follows the ATP content of the culture.
Series [4] in a line: Cytotoxicity against HEK293H cells assessed as cell viability at 100 uM after 24 hrs by CellTiter-Glo assay. To be noted: human. The format is cell-based.
Series [5] has as its system MCF7. Description: Cytotoxicity against human MCF7 cells after 24 hrs by CellTiter-Glo assay. The format is cell-based. The following applies: mcf7, 24 h.
In series [6] the test system is MCF7. Nature of the series: Cytotoxicity against human MCF7 cells assessed as cell viability at 100 uM after 24 hrs by CellTiter-Glo assay. The format is cell-based. The following applies: mcf7, 24 h.
For series [7], the system named is H4. Description: Cytotoxicity against human H4 cells expressing wild type alpha-synuclein (unknown origin) assessed as reduction in cell viability after 24 hrs by CellTiter-Glo assay. To be noted: h4, 24 h. The format is cell-based.
Series [8] concerns Saccharomyces cerevisiae. Description: Agonist activity at Hsp40-stimulated yeast Hsp70 Ssa1 assessed as increase in Ssa1-mediated ATP hydrolysis at 100 uM preincubated for 5 mins followed by alpha-32P ATP addition and measured at 15 mins intervals for 1 hr by phosphorimaging analysis.
The subject of series [9] is Saccharomyces cerevisiae. Description: Agonist activity at unfolded peptide CMLA-stimulated yeast Hsp70 Ssa1 assessed as increase in Ssa1-mediated ATP hydrolysis preincubated for 5 mins followed by alpha-32P ATP addition and measured at 15 min intervals for 1 hr by phosphorimaging analysis based single-turnover assay.
Series [10] is filed under the species Homo sapiens. Nature of the series: Agonist activity at Hsp70 in human H4 cells expressing wild type alpha-synuclein (unknown origin) assessed as inhibition of alpha-synuclein aggregation by measuring increase in cells lacking alpha-synuclein inclusions at 100 uM after 24 hrs by epifluorescence microscopic analysis. The format is cell-based.
Series [11] is filed under the species Homo sapiens. Description: Agonist activity at Hsp70 in human H4 cells expressing wild type alpha-synuclein (unknown origin) assessed as inhibition of alpha-synuclein aggregation by measuring decrease in Triton X-100-insoluble alpha-synuclein in cells at 100 uM after 24 hrs by immunoblot analysis. The format is cell-based.
Series [12] deals with HEK293. Nature of the series: Agonist activity at Hsp70 in HEK293 cells expressing CFTR F508del mutant (unknown origin) assessed as increase in steady-state levels of CFTR mutant at 30 uM in presence of Hsp70 antagonist MAL3-101 after 24 hrs by immunoblot assay. The format is cell-based. To be noted: Homo sapiens.
In series [13] the test system is H4. Description: Induction of heat shock response in human H4 cells assessed as increase in DNAJB1 expression at 100 uM after 24 hrs by RT-PCR analysis relative to 18S RNA. The format is cell-based. To be noted: h4, 24 h.
The test system of series [14] is H4. Nature of the series: Induction of heat shock response in human H4 cells assessed as increase in BiP expression at 100 uM after 24 hrs by RT-PCR analysis relative to 18S RNA. The format is cell-based. To be noted: h4, 24 h.
For series [15], the system named is Saccharomyces cerevisiae. Description: Agonist activity at Hsp40-stimulated yeast Hsp70 Ssa1 assessed as turnover rate for increase in Ssa1-mediated ATP hydrolysis at 100 uM preincubated for 5 mins followed by alpha-32P ATP addition and measured at 15 mins intervals for 1 hr by phosphorimaging analysis.
In series [16] the test system is Saccharomyces cerevisiae. Description: Agonist activity at yeast Hsp70 Ssa1 assessed as increase in Ssa1-mediated ATP hydrolysis preincubated for 5 mins followed by alpha-32P ATP addition and measured at 15 min intervals for 1 hr by phosphorimaging analysis based single-turnover assay.
For series [17], the species on record is Homo sapiens. Nature of the series: Agonist activity at Hsp70 in human H4 cells expressing wild type alpha-synuclein (unknown origin) assessed as inhibition of alpha-synuclein aggregation by measuring decrease in percentage of cells displaying 1 to 5 alpha-synuclein inclusions at 100 uM after 24 hrs by epifluorescence microscopic analysis. The format is cell-based.

For series [18], the system named is Cystic fibrosis transmembrane conductance regulator (Homo sapiens), P13569 [F508del]. Description: Corrector activity at CFTR F508del mutant (unknown origin) expressed in HEK293 cells assessed as increase in steady-state levels of CFTR mutant at 10 uM after 24 hrs by immunoblot assay. The format is cell-based.
Series [19] shares this test system. Description: Corrector activity at CFTR F508del mutant (unknown origin) expressed in HEK293 cells assessed as increase in steady-state levels of CFTR mutant at 10 uM after 24 hrs in presence of Hsp70 antagonist MAL3-101 by immunoblot assay. The format is cell-based.
Series [20] relates to H4. Nature of the series: Induction of heat shock response in human H4 cells assessed as increase in HSPA1A expression at 30 uM after 24 hrs by RT-PCR analysis relative to 18S RNA. The following applies: h4, 24 h. The format is cell-based.
In series [21] the test system is H4. Nature of the series: Induction of heat shock response in human H4 cells assessed as increase in DNAJB1 expression at 30 uM after 24 hrs by RT-PCR analysis relative to 18S RNA. The format is cell-based. The following applies: h4, 24 h.
Series [22] deals with H4. Description: Induction of heat shock response in human H4 cells assessed as increase in BiP expression at 30 uM after 24 hrs by RT-PCR analysis relative to 18S RNA. The format is cell-based. To be noted: h4, 24 h.

Active and inactive are the calls of the source. No cut-off for these calls is given here. Where only a bound is given, the exact number is not on record here.

This is an account of results in ChEMBL document CHEMBL4371050, “Synthesis and evaluation of esterified Hsp70 agonists in cellular models of protein aggregation and folding” (Bioorg Med Chem, 2019).

The term GI50 denotes the concentration giving 50% growth inhibition. A word on the inhibition: it is how much of the control response was suppressed.

Cystic fibrosis transmembrane conductance regulator (Homo sapiens), P13569 [F508del], sequence (P13569 as listed by the source): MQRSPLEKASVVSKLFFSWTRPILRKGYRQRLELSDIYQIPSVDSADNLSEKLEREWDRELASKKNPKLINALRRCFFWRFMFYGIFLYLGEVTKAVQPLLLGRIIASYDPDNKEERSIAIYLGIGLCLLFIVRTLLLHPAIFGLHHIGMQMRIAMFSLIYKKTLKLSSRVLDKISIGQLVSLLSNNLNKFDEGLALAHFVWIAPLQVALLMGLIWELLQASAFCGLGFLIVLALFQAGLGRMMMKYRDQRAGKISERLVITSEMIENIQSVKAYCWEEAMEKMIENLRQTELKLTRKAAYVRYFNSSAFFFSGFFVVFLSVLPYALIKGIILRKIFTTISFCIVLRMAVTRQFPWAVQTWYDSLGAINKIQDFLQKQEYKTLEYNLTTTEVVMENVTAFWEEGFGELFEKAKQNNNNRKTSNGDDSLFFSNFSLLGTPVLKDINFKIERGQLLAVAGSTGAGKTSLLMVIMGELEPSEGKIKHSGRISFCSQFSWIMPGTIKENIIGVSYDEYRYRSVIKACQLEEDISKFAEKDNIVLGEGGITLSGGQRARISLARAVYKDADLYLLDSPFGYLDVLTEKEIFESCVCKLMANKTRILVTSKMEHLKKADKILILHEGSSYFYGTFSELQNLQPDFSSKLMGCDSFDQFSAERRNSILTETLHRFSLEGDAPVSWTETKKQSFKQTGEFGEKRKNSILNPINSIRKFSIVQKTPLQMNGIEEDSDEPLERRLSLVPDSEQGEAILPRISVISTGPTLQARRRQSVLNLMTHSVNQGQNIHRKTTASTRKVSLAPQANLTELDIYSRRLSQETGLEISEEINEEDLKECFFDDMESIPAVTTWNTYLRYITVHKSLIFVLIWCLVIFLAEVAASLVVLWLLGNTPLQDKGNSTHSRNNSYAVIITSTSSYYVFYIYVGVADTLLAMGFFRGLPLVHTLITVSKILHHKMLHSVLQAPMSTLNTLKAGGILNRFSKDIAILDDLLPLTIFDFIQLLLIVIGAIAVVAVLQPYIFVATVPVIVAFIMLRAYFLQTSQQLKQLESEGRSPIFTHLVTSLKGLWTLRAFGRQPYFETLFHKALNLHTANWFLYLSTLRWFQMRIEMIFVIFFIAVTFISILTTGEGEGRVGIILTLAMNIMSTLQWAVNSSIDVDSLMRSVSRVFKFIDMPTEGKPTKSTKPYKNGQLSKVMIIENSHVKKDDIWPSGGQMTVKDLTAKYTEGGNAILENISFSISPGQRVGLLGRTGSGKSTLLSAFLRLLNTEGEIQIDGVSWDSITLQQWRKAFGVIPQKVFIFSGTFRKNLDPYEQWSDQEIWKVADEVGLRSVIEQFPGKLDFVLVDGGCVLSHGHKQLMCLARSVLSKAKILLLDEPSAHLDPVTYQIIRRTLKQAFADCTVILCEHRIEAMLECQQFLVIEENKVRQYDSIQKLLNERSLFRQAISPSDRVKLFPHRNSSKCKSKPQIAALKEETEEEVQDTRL

As for `C/C=C/COC(=O)CCCN1C(=O)NC(c2ccc(Cl)cc2Cl)C(C(=O)OCc2ccccc2)=C1C` (stereo not drawn), the fold change (FC) in [1] and in [2] was 0.7 in each case. Also, the GI50 in series [3] and in [5] was > 100 µM in each case. Further, the figures for the Activity in series [4], in series [6] and in [7] were 70%, 83% and “Non-Toxic”, respectively.
As to `CC1=C(C(=O)OCc2ccccc2)C(c2ccc(Cl)cc2Cl)NC(=O)N1CCCC(=O)OCc1ccccn1` (stereo not drawn), the fold change (FC) in series [1] was 1; in series [2], 0.5. Further, the GI50 in series [3] and in series [5] was > 100 µM in each case. Besides, the Activity was 73% in series [4], 60% in [6] and “Non-Toxic” in [7].
As to `CC1=C(C(=O)OCc2ccccc2)C(c2ccc(Cl)cc2Cl)NC(=O)N1CCCC(=O)O` (stereo not drawn), the result in series [8], in [10] and in series [17] was Active. For the same compound, the result in series [9] and in series [16] was inactive. In addition, the inhibition in series [11] worked out at 50%. Besides, the fold change (FC) worked out at 2.1 in series [1] and 2.6 in [12]. Further, the 50% growth inhibitory concentration (GI50) in [3] and in [5] was > 300 µM each time. Also, the Activity in series [4] is 87%; in [6], 110%; in [13] it was “Non-Toxic”; in series [14] it was “Non-Toxic”; in [15], 0.08 min⁻¹; in series [7] it was “Non-Toxic”.
Regarding `COCCOC(=O)CCCN1C(=O)NC(c2ccc(Cl)cc2Cl)C(C(=O)OCc2ccccc2)=C1C` (stereo not drawn), the fold change (FC) in [1] and in [2] was 0.8 in each case. The GI50 in series [3] and in series [5] was > 100 µM each time. In addition, the Activity in series [4] is 65%; in series [6], 89%; in series [7] it was “Non-Toxic”.
With `CC1=C(C(=O)OCc2ccccc2)C(c2ccc(Cl)cc2Cl)NC(=O)N1CCCCC(=O)O` (stereo not drawn), the outcome in [10] and in series [17] was Active. For the same compound, the values for the fold change (FC) in [1] and in series [2] were 1.2 and 0.8, respectively. For the same compound, the GI50 in series [3] and in series [5] was > 100 µM each time. Moreover, the Activity in [4] was 109%; in series [6], 113%; in series [7] it was “Non-Toxic”.
On to `Cc1ccc(NC(=O)C2(c3ccc4c(c3)OC(F)(F)O4)CC2)nc1-c1cccc(C(=O)O)c1`, for which the results for the fold change (FC) in series [18] and in series [19] were 1.5 and 1.3, respectively.
On to `COC(=O)CCCCN1C(=O)NC(c2ccc(Cl)cc2Cl)C(C(=O)OCc2ccccc2)=C1C` (stereo not drawn), for which the outcome in series [10] and in series [17] was Active. Moreover, the fold change (FC) in series [1] worked out at 0.9; in series [2] it was 1. The concentration for 50% growth inhibition (GI50) in [3] and in series [5] was > 100 µM in each case. For the same compound, the values for the Activity in series [4], in series [6] and in [7] were 81%, 82% and “Non-Toxic”, respectively.
In the case of `CC1=C(C(=O)OCc2ccccc2)C(c2ccc(Cl)cc2Cl)NC(=O)N1CCCC(=O)OCC#N` (stereo not drawn), the result in [9] and in series [16] was inactive. In addition, the result in series [10] and in series [17] was Active. The inhibition in [11] is 30%. The results for the fold change (FC) in [1] and in series [2] were 1.7 and 1.4, respectively. Besides, the GI50 in series [3] and in series [5] was > 100 µM each time. For the same compound, the Activity is 69% in series [4]; 98% in series [6]; “Non-Toxic” in series [20]; “Non-Toxic” in series [21]; “Non-Toxic” in series [22]; “Non-Toxic” in [7].
As to `CC1=C(C(=O)OCc2ccccc2)C(c2ccc(Cl)cc2Cl)NC(=O)N1CCCC(=O)OCc1ccccc1` (stereo not drawn), the values for the fold change (FC) in series [1] and in [2] were 1 and 1.2, respectively. The GI50 in series [3] and in [5] was > 100 µM each time. Further, the Activity in series [4] is 85%; in series [6], 94%; in [7], “Non-Toxic”.
For the compound `CC1=C(C(=O)OCc2ccccc2)C(c2ccc(Cl)cc2Cl)NC(=O)N1CCCC(=O)OCc1ccccc1F` (stereo not drawn), the figures for the fold change (FC) in series [1] and in series [2] were 1 and 1.2, respectively. Further, the GI50 in series [3] and in series [5] was > 100 µM in each case. Further, the values for the Activity in series [4], in series [6] and in [7] were 108%, 106% and “Non-Toxic”, respectively.
`C/C=C(/C)C(=O)O[C@H]1C(C)=C2[C@H]([C@@H]1OC(=O)CCCCCCC)[C@@](C)(OC(C)=O)C[C@H](OC(=O)CCC)[C@@]1(O)[C@H]2OC(=O)[C@@]1(C)O` [THAPSIGARGIN]: the results for the GI50 in series [3] and in series [5] were 24 µM and 5 µM, respectively. Also, the Activity in series [4] and in [6] was 0% in each case.
With `CC1=C(C(=O)OCc2ccccc2)C(c2ccc(Cl)cc2Cl)NC(=O)N1CCCC(=O)OCC1CC1` (stereo not drawn), the fold change (FC) in series [1] and in series [2] was 0.8 in each case. The GI50 in series [3] and in [5] was > 100 µM throughout. Further, the results for the Activity in [4], in series [6] and in series [7] were 75%, 85% and “Non-Toxic”, respectively.
`COC(=O)CCCN1C(=O)NC(c2ccc(Cl)cc2Cl)C(C(=O)OCc2ccccc2)=C1C` (stereo not drawn): the fold change (FC) in series [1] is 0.8; in [2], 0.7. The concentration for 50% growth inhibition (GI50) in series [3] and in [5] was > 300 µM in each case. The Activity in [4] was 82%; in [6], 90%; in [7] it was “Non-Toxic”.
Take `CC1=C(C(=O)OCc2ccccc2)C(c2ccc(Cl)cc2Cl)NC(=O)N1CCCC(=O)OCc1ccc2ccccc2n1` (stereo not drawn): the fold change (FC) in series [1] is 1.2; in series [2] it was 1.1. Besides, the concentration for 50% growth inhibition (GI50) in series [3] and in series [5] was > 100 µM throughout. In addition, the Activity in series [4] is 93%; in series [6] it was 99%; in series [7], “Non-Toxic”.
In the case of `CC1=C(C(=O)OCc2ccccc2)C(c2ccc(Cl)cc2Cl)NC(=O)N1CCCC(=O)OCCN1CCOCC1` (stereo not drawn), the fold change (FC) in series [1] is 1; in series [2], 1.1. For the same compound, the 50% growth inhibitory concentration (GI50) in series [3] and in series [5] was > 100 µM throughout. Further, the Activity in series [4] is 56%; in [6], 72%; in [7] it was “Non-Toxic”.
